Results: patent US9879050B2, “Substituted urea depsipeptide analogs as activators of the CLPP endopeptidase” (priority 2013, dated 2018)
Converted amounts (≈) assume the structure as drawn.

Tests used:
Sa-ClpP = target: T1, Sa-ClpP (Staphylococcus aureus, UniProt Q2G036); assay: ADEP displacement fluorescence polarization assay; type: binding, S. aureus; conditions: 1 μM Sa-ClpP, 50 nM FP probe ADEP 2591; read-out: ADEP Displacement IC50
T1 construct: made in house; host or cells: E. coli BL21 (DE3)
Outline: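 Displacement of TAMRA-labelled ADEP 2591 probe (50 nM) from 1 μM Sa-ClpP, pre-equilibrated 1 h in Tris·HCl pH 8.0 with 2% DMSO, then 120 min at room temperature with compound, triplicate. Polarization (mP) read ex 530/em 579 nm, normalised to 20 μM ADEP 2378 and DMSO controls; four-parameter fit.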

S. aureus ClpP (Sa-ClpP) = target: T2, S. aureus ClpP (Sa-ClpP) (Staphylococcus aureus, UniProt Q2G036); assay: ClpP activation, casein-BODIPY digestion assay (first described method); type: biochemical; conditions: first described ClpP activation assay (**); 10 μM saClpP, 25 μg/ml BODIPY FL casein, 37° C.; read-out: ClpP Activation EC50
T2 construct: made in house; host or cells: E. coli BL21 (DE3)
Outline: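 Purified E. coli-expressed Sa-ClpP (10 μM) with 25 μg/ml BODIPY FL casein and 0-100 μM compound in 50 mM Tris pH 8, 200 mM KCl, 1 mM TCEP at 37° C. Fluorescence (ex 485/em 528 nm) read every 5 min over 45 min; velocities fit to dose-response for EC50 of 50% activation, in triplicate.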

E. faecails ATCC 33186 = assay: Minimal inhibitory concentration, microbroth dilution; type: cell-based; conditions: Enterococcus faecalis, ATCC33186, read-out: Minimal Inhibitory Concentration E. faecails ATCC 33186
Outline: (§1)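 MICs were determined by CLSI broth microdilution, using two-fold compound dilutions from a final 200 μM and about 10^5 cfu/mL inoculum. Plates were incubated aerobically at 37 °C overnight. The MIC was read visually as the lowest concentration preventing growth.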

S. pneumoniae DAW27 = assay: as above; type: cell-based; conditions: Streptococcus pneumoniae, DAW27, read-out: Minimal Inhibitory Concentration S. pneumoniae DAW27
Outline: as §1

T1 sequence (Q2G036 whole entry): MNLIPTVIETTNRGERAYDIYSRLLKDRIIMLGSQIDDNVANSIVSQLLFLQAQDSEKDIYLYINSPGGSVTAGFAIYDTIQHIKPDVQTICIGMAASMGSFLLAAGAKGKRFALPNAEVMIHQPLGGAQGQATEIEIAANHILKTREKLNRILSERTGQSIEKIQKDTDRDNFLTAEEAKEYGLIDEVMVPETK
T2 sequence (Q2G036 whole entry): as above

| SMILES | IC50 (Sa-ClpP) | EC50 (S. aureus ClpP (Sa-ClpP)) | MIC (E. faecails ATCC 33186) | MIC (S. pneumoniae DAW27) |
| --- | --- | --- | --- | --- |
| C[C@@H]1C[C@H]2C(=O)OC[C@H](NC(=O)[C@H](Cc3ccccc3)NC(=O)Nc3ccc(Cl)cc3)C(=O)N3CCC[C@H]3C(=O)N3CCCC[C@H]3C(=O)N[C@@H](C)C(=O)N2C1 [Compound 3, (S)-2-(3-(4-Chlorophenyl)Ureido)-N-((2R,6S,8aS,14aS,20S,23aS)-2,6-Dimethyl-5,8,14,19,23-Pentaoxooctadecahydro-1H,5H,14H,19H-Pyrido[2,1-I]Dipyrrolo[2,1-C:2′,1′-L][1]Oxa[4,7,10,13]Tetraazacyclohexadecin-20-Yl)-3-Phenylpropanamide] | 9.25 ± 0.5 µM | 3300 ± 200 nM | 0.2 µM (≈ 0.156 µg/mL) | 0.2 µM (≈ 0.156 µg/mL) |
| C[C@@H]1C[C@H]2C(=O)OC[C@H](NC(=O)[C@H](Cc3ccccc3)NC(=O)Nc3ccc4c(c3)CCN4C)C(=O)N3CCC[C@H]3C(=O)N3CCCC[C@H]3C(=O)N[C@@H](C)C(=O)N2C1 [Compound 11, (S)—N-((2R,6S,8aS,14aS,20S,23aS)-2,6-Dimethyl-5,8,14,19,23-Pentaoxooctadecahydro-1H,5H,14H,19H-Pyrido[2,1-I]Dipyrrolo[2,1-C:2′,1′-L][1]Oxa[4,7,10,13]Tetraazacyclohexadecin-20-Yl)-2-(3-(1-Methylindolin-5-Yl)Ureido)-3-Phenylpropanamide] | 4.45 ± 0.3 µM | 2300 ± 300 nM | 0.6 µM (≈ 0.479 µg/mL) | 0.3 µM (≈ 0.24 µg/mL) |
| COc1ccc(NC(=O)N[C@@H](Cc2ccccc2)C(=O)N[C@H]2COC(=O)[C@@H]3C[C@@H](C)CN3C(=O)[C@H](C)NC(=O)[C@@H]3CCCCN3C(=O)[C@@H]3CCCN3C2=O)cc1 [Compound 6, (S)—N-((2R,6S,8aS,14aS,20S,23aS)-2,6-Dimethyl-5,8,14,19,23-Pentaoxooctadecahydro-1H,5H,14H,19H-Pyrido[2,1-1]Dipyrrolo[2,1-C:2′,1′-L][1]Oxa[4,7,10,13]Tetraazacyclohexadecin-20-Yl)-2-(3-(4-Methoxyphenyl)Ureido)-3-Phenylpropanamide] | 27.7 ± 1.5 µM | 2000 ± 100 nM | 0.78 µM (≈ 0.604 µg/mL) | 0.2 µM (≈ 0.155 µg/mL) |
| C[C@@H]1C[C@H]2C(=O)OC[C@H](NC(=O)[C@H](Cc3ccccc3)NC(=O)Nc3cccc(Cl)c3)C(=O)N3CCC[C@H]3C(=O)N3CCCC[C@H]3C(=O)N[C@@H](C)C(=O)N2C1 [Compound 9, (S)-2-(3-(3-Chlorophenyl)Ureido)-N-((2R,6S,8aS,14aS,20S,23aS)-2,6-Dimethyl-5,8,14,19,23-Pentaoxooctadecahydro-1H,5H,14H,19H-Pyrido[2,1-I]Dipyrrolo[2,1-C:2′,1′-L][1]Oxa[4,7,10,13]Tetraazacyclohexadecin-20-Yl)-3-Phenylpropanamide] | 25.4 ± 2.2 µM | 1000 ± 100 nM | 1.56 µM (≈ 1.21 µg/mL) | 0.78 µM (≈ 0.607 µg/mL) |
